# From US8969295B2, “Identifying and modulating molecular pathways that mediate nervous system plasticity” (Massachusetts Institute of Technology, priority 2006, dated 2015)
# Entries after “also recorded” stand apart in the source; their conditions may differ.
# What was measured:
# PKC = details: Nishiyama et al., 2003; cited from earlier work
# binocular portion of V1 = assay: Optical imaging of intrinsic signals in V1: ocular dominance after monocular deprivation (MD) with IGF1; type: in vivo, mouse
# Experimental: For monocular deprivation, animals were anesthetized with avertin (0.016 ml/g) and the eyelids of one eye were sutured (at P20-22 for 7 days for imaging experiments). Before imaging, the suture was removed and the deprived eye re-opened. Only animals in which the deprivation sutures were intact and the condition of the deprived eye appeared healthy were used for the imaging session. For DR animals (aged P27-30), the procedure was the same described above, with the exception that the animals were anesthetized in darkness and not exposed to light until deeply anaesthetized; in these mice only the binocular response was evaluated and compared to that in control animals.
# Mice (129/SvEv and C57B1/6) aged P26-30 were anesthetized with urethane (1.5 g/Kg) and chlorprothixene (0.2 mg), as described^84. Skin was excised and the skull exposed over V1. A custom-made attachment was used to fix the head and minimize movements. The cortex was covered with agarose solution (1.5%) and a glass cover slip. During the imaging session the animal's body temperature was kept constant with a heating blanket and the EKG monitored constantly. […]
# A temporal high pass filter (135 frames) was employed to remove slow noise components, after which the temporal Fast Fourier Transform (FFT) component at the stimulus frequency ([…]) was calculated pixel by pixel from the whole set of images. […]
# [1] = in vivo; cited from earlier work
# [2] = system: visual cortex gene expression; assay: Microarray analysis of MD+IGF1 animals versus MD animals, all genes; type: in vivo, mouse; details: 4 days MD + daily IP IGF1, microarray
# Experimental: (§1) In additional experiments in which the effects of short-term (4 days from P23-27) MD were investigated, as well the effects of IGF1 infusion concurrent with MD, a total of four experimental groups were analyzed: a new group of control animals (3 samples), the ipsilateral and the contralateral cortex of mice monocularly deprived for four days (3 samples for the ipsilateral and 3 samples for the contralateral cortex), the contralateral cortex of mice that were monocularly deprived for four days and were injected IP daily with IGF1 solution (3 samples). Tissue was removed and the RNA extracted as described above, and labeled RNA was hybridized to the Affymetrix mouse genome 430.2 chip, which contains oligonucleotides that correspond to a total of 42,000 probes targeting genes and ESTs.
# (§2) A method for the Significance Analysis of Microarrays to assess changes in gene expression was used^31, and the method was implemented in MATLAB (The Mathworks, Natick, Mass.). The method allows the comparison of the expression level of each gene under two conditions (e.g., MD vs. control; or DR vs. control). […] Correlations between replicates were calculated as correlation coefficients (c.c.) for all conditions: control (c.c.=0.99±0.002), MD 16 days (c.c.=0.9±0.05), MD 4 days contralateral (c.c.=0.99±0.001), MD 4 days ipsilateral (0.99±0.005), MD 4 days contralateral plus IGF1 (c.c.=0.99±0.004). […]
# ischemia in the CNS = details: intra-peritoneal administration; cited from earlier work
# PI3K = assay: Microarray analysis of MD+IGF1 animals versus MD animals; type: in vivo, mouse; details: 4 days MD + daily IP IGF1, contralateral cortex; P<0.01
# Experimental: as §1, §2
# IGFBP5 [3] = assay: as above; type: in vivo, mouse; details: 4 days MD + daily IP IGF1, contralateral cortex; P<0.01
# Experimental: as §1, §2
# IGF1 receptor (IGF1R) = assay: Immunostaining in V1 after MD with concurrent IGF1; type: in vivo, mouse; details: short-term (4 days) MD + daily IP IGF1
# Experimental: as §1
# (§3) Mice were anesthetized and transcardially perfused with a solution of 4% paraformaldehyde. The appropriate brain hemispheres were removed and equilibrated in 30% sucrose in PBS. Coronal sections containing visual cortex were cut using a freezing microtome. Immunohistochemistry for GluR1 (1:500, Upstate), IGFBP5 (1:500, USBiological), CaMK2alpha (1:500, Sigma), PhosphoCREB (1:500, Cell Signaling), activated Stat1 (1:500, Abcam), parvalbumin (1:1000, Chemicon), calretinin (1:500, Chemicon), somatostatin (1:300, Chemicon), neuropeptideY (1:400, Chemicon), synapsin 1 (1:500, Chemicon), IGF1 (1:250, Chemicon), GAD 67 (1:400, Chemicon), IGF1R (1:500, Upstate), PI3K—catalytic subunit 110 (1:400, Upstate), phosphorylated-Akt (1:250, Cell Signaling), was carried out as described elsewhere^82,83. For each staining, analysis was repeated in parallel for control and deprived animals. Experiments were carried out at least on two animals for each group and repeated twice. The intensity of staining in sections from control and deprived animals was evaluated with ImageJ software (rsb.info.nih.gov/ij/). Counts of parvalbumin, calretinin, somatostatin and NPY-positive cells were performed as described elsewhere^29.
# (§4) For IGF1 treatment, a solution containing GPE, the functional peptide of IGF1, was prepared as described^56: 300 μg of GPE was injected intra-peritoneally daily for the entire period of deprivation. This peptide is referred to as “IGF1” in the Results below.
# synapsin 1 = assay: Immunostaining in V1 after MD with concurrent IGF1; type: in vivo, mouse; details: short-term (4 days) MD + daily IP IGF1; P<0.05
# Experimental: as §1, §3, §4
# [4] = system: Phosphatidylinositol 3-Kinase (PI3K); assay: Immunostaining in V1 after MD with concurrent IGF1; type: in vivo, mouse; details: short-term (4 days) MD + daily IP IGF1; P<0.05
# Experimental: as §1, §3, §4
# phosphorylated-Akt = assay: Immunostaining in V1 after MD with concurrent IGF1; type: in vivo, mouse; details: short-term (4 days) MD + daily IP IGF1
# Experimental: as §1, §3, §4
# IGFBP5 [5] = assay: Immunostaining in V1 after MD with concurrent IGF1; type: in vivo, mouse; details: short-term (4 days) MD + daily IP IGF1, cortex contralateral to deprived eye
# Experimental: as §1, §3, §4
# cGMP = details: Leamey et al., 2001; cited from earlier work
compound,measurement,setting,value
CN(C)CCCn1cc(C2=C(c3c[nH]c4ccccc34)C(=O)NC2=O)c2ccccc21 [GF109203X],Effective doses in slices,PKC,10 to 100 µM
"IGF1: GPE, the functional peptide of IGF1 (tripeptide), referred to as IGF1 in the Results of Example 4 (Insulin-like growth factor I; UniProt P05019 49-51, looked up, fragment)",shift of mean ocular dominance index across animals relative to control,"binocular portion of V1; 7 days MD + IGF1 i.p., n=3, P>0.2 vs control",prevented the shift
same,ocular dominance shift towards the open eye (ocular dominance distribution of pixels within the binocular zone),"binocular portion of V1; 7 days MD during critical period, 300 μg GPE intra-peritoneally daily for the period of deprivation",prevented the ocular dominance shift towards the open eye; also recorded: prevents the ocular dominance shift
same,ability to cross the blood brain barrier,[1],able to cross the blood brain barrier
same,genes significantly altered in expression in MD+IGF1 animals compared to MD animals,[2],only a small fraction of genes was significantly altered
same,effects of ischemia in the CNS,ischemia in the CNS,prevents the effects of ischemia in the CNS
same,PI3K microarray expression compared to MD alone,PI3K,upregulated
same,IGFBP5 microarray expression compared to MD alone,IGFBP5 [3],significantly downregulated
same,"Expression of the IGF1 receptor (IGF1R), immunostaining in V1",IGF1 receptor (IGF1R),partially restored
same,"level of synapsin expression, immunostaining for synapsin 1 in V1",synapsin 1,significant increase
same,"PI3K expression, immunostaining in V1",[4],fully restored
same,"Expression of phosphorylated-Akt, immunostaining in V1",phosphorylated-Akt,restored
same,IGFBP5 immunostaining in V1,IGFBP5 [5],no change from normal levels
O=c1onc2cnc3ccccc3n12 [ODQ],effective dose for influencing axon growth,cGMP,about 10 μM
